Structures can show the parent of a compound that is named as a salt.
experiment: In vitro inhibition of calcium phosphate crystallization in human plasma (spectrophotometric); assay type: biochemical; details: 0-100 μM, 1.5 mM phosphate, 12.5 mM calcium, pH 7.4, 30 min, rt, read-out: Relative Potency (EC50, inhibition of calcium phosphate crystallization)
Protocol: The in vitro efficacy of the IP4-4,6 substituted derivatives (e.g., Compounds 1 to 53) of the invention on the inhibition of calcium phosphate crystallization in human plasma samples was evaluated according to a spectrophotometric assay previously described in the art (Ferrer M, et al., Sci Rep 2017; 7:6858, doi:10.1038/s41598-017-07203-x).
A 96-well plate was employed. Plasma was spiked (1 volume of the IP4-4,6 substituted derivatives of the invention per 19 volumes of plasma) with increasing concentrations of the derivatives in the range of 0-100 μM. Plasma was then centrifuged at 10,000 g at rt and subsequently mixed with a mixture of 5 mM hydrogen phosphate and 41.67 mM calcium to attain final concentrations of 1.5 mM phosphate and 12.5 mM calcium, respectively. All reagent solutions were filtered, and pH adjusted to 7.4.
Crystallization of calcium phosphate was monitored spectrophotometrically for 30 min at rt by measuring the increments in absorbance at 550 nm using the Biotek Powerwave XS Microplate spectrophotometer (BioTek Instruments, Inc., Winooski, VT, US). The plate was incubated at rt in an orbital shaker and absorbance measured every 3 min.
Plasma crystallization was assessed based on slope measurement in the linear range between 6 and 24 min from plots of increase in absorbance versus logarithm of time. The efficacy of different myo-inositol phosphates derivatives in preventing in vitro formation of calcium phosphate crystals was assessed in human plasma samples using the slopes obtained between 6- and 24-min. Inhibition of crystallization was measured by comparing the slopes of the control sample (blank plasma) with those of samples containing the inhibitor as shown below: […]

| Compound | EC50 |
| --- | --- |
| 4,6-O-bis(2-(4-acetylpiperazin-1-yl)ethyl)-myo-inositol-1,2,3,5-tetrakis(phosphate) octasodium salt [Compound 34] | 5 to 10 µM |
| 4,6-O-bis(5-carboxypentyl)-myo-inositol-1,2,3,5-tetrakis(phosphate) decasodium salt [Compound 18] | ≤ 5 µM |
| 4,6-O-(6-(4-carboxy-1H-1,2,3-triazol-1-yl) hexyl)-myo-inositol-1,2,3,5-tetrakis(phosphate) decasodium salt [Compound 40] | ≤ 5 µM |
| O=C(NCCCCCOC1C(OP(=O)(O)O)C(OCCCCCNC(=O)c2cccs2)C(OP(=O)(O)O)C(OP(=O)(O)O)C1OP(=O)(O)O)c1cccs1 (stereo not drawn) [Compound 49, 4,6-O-bis(5-(thiophene-2-carboxamido)pentyl)-myo-inositol-1,2,3,5-tetrakis(phosphate) octasodium salt] | 5 to 10 µM |
| CCCCCCCCCCOC1C(OP(=O)(O)O)C(OCCCCCCCCCC)C(OP(=O)(O)O)C(OP(=O)(O)O)C1OP(=O)(O)O (stereo not drawn) [Compound 2, 4,6-O-didecyl-myo-inositol-1,2,3,5-tetrakis(phosphate) octasodium salt] | > 10 µM |
| O=C(O)CCn1cc(CO[C@@H]2[C@@H](OP(=O)(O)O)[C@H](OCc3cn(CCC(=O)O)nn3)[C@@H](OP(=O)(O)O)[C@@H](OP(=O)(O)O)[C@H]2OP(=O)(O)O)nn1 [Compound 31, 4,6-O-bis((1-(2-carboxyethyl)-1H-1,2,3-triazol-4-yl)methyl)-myo-inositol-1,2,3,5-tetrakis(phosphate) decasodium salt] | ≤ 5 µM |
| O=C(NCCCCCOC1C(OP(=O)(O)O)C(OCCCCCNC(=O)c2ccccc2)C(OP(=O)(O)O)C(OP(=O)(O)O)C1OP(=O)(O)O)c1ccccc1 (stereo not drawn) [Compound 48, 4,6-O-bis(5-benzamidopentyl)-myo-inositol-1,2,3,5-tetrakis(phosphate) octasodium salt] | > 10 µM |
| COCc1cn(CCCCOC2C(OP(=O)(O)O)C(OCCCCn3cc(COC)nn3)C(OP(=O)(O)O)C(OP(=O)(O)O)C2OP(=O)(O)O)nn1 (stereo not drawn) [Compound 37, 4,6-O-bis(4-(4-(methoxymethyl)-1H-1,2,3-triazol-1-yl)butyl)-myo-inositol-1,2,3,5-tetrakis(phosphate) octasodium salt] | 5 to 10 µM |
| 4,6-O-bis(6,6,6-trifluorohexyl)-myo-inositol-1,2,3,5-tetrakis(phosphate) octasodium salt [Compound 23] | > 10 µM |
| O=P(O)(O)O[C@@H]1[C@@H](OCCC2CCCC2)[C@H](OP(=O)(O)O)[C@H](OP(=O)(O)O)[C@H](OP(=O)(O)O)[C@H]1OCCC1CCCC1 [Compound 29, 4,6-O-bis(2-cyclopentylethyl)-myo-inositol-1,2,3,5-tetrakis(phosphate) octasodium salt] | ≤ 5 µM |
| O=P(O)(O)OC1C(OCCCCCCCCCCO)C(OP(=O)(O)O)C(OP(=O)(O)O)C(OP(=O)(O)O)C1OCCCCCCCCCCO (stereo not drawn) [Compound 7, 4,6-O-bis(10-hydroxydecyl)-myo-inositol-1,2,3,5-tetrakis(phosphate) octasodium salt] | > 10 µM |
| COCCCCCCn1cc(COC2C(OP(=O)(O)O)C(OCc3cn(CCCCCCOC)nn3)C(OP(=O)(O)O)C(OP(=O)(O)O)C2OP(=O)(O)O)nn1 (stereo not drawn) [Compound 33, 4,6-O-bis((1-(6-methoxyhexyl)-1H-1,2,3-triazol-4-yl)methyl)-myo-inositol-1,2,3,5-tetrakis(phosphate) octasodium salt] | 5 to 10 µM |
| O=P(O)(O)OC1C(OCCCCCn2cncn2)C(OP(=O)(O)O)C(OP(=O)(O)O)C(OP(=O)(O)O)C1OCCCCCn1cncn1 (stereo not drawn) [Compound 17, 4,6-O-bis(5-(1H-1,2,4-triazol-1-yl)pentyl)-myo-inositol-1,2,3,5-tetrakis(phosphate) octasodium salt] | > 10 µM |
| 4,6-O-bis(3-(4-(2-carboxyethyl)-1H-1,2,3-triazol-1-yl)propyl)-myo-inositol-1,2,3,5-tetrakis(phosphate) decasodium salt [Compound 35] | ≤ 5 µM |
| COc1ccc(CCCOC2C(OP(=O)(O)O)C(OCCCc3ccc(OC)cc3)C(OP(=O)(O)O)C(OP(=O)(O)O)C2OP(=O)(O)O)cc1 (stereo not drawn) [Compound 43, 4,6-O-bis(3-(4-methoxyphenyl)propyl)-myo-inositol-1,2,3,5-tetrakis(phosphate) octasodium salt] | 5 to 10 µM |
| 4,6-O-bis(19-methoxynonadec-10-yn-1-yl)-myo-inositol-1,2,3,5-tetrakis(phosphate) octasodium salt [Compound 20] | ≤ 5 µM |
| 4,6-O-bis((1-(3-methoxypropyl)-1H-1,2,3-triazol-4-yl)methyl)-myo-inositol-1,2,3,5-tetrakis(phosphate) octasodium salt [Compound 32] | ≤ 5 µM |
| 4,6-O-bis((3-(4-carboxybutanamido)propyl))-myo-inositol-1,2,3,5-tetrakis(phosphate) decasodium salt [Compound 45] | ≤ 5 µM |
| COCc1cn(CCCCCCOC2C(OP(=O)(O)O)C(OCCCCCCn3cc(C(=O)O)nn3)C(OP(=O)(O)O)C(OP(=O)(O)O)C2OP(=O)(O)O)nn1 (stereo not drawn) [Compound 41, 4-O-(6-(4-carboxy-1H-1,2,3-triazol-1-yl)hexyl)-6-O-(6-(4-(methoxymethyl)-1H-1,2,3-triazol-1-yl)hexyl)-myo-inositol-1,2,3,5-tetrakis(phosphate) nonasodium salt] | ≤ 5 µM |
| 4,6-O-bis(6-(4-(methoxymethyl)-1H-1,2,3-triazol-1-yl) hexyl)-myo-inositol-1,2,3,5-tetrakis(phosphate) octasodium salt [Compound 39] | ≤ 5 µM |
| O=P(O)(O)O[C@@H]1[C@@H](OCCCC(F)(F)F)[C@H](OP(=O)(O)O)[C@H](OP(=O)(O)O)[C@H](OP(=O)(O)O)[C@H]1OCCCC(F)(F)F [Compound 22, 4,6-O-bis(4,4,4-trifluorobutyl)-myo-inositol-1,2,3,5-tetrakis(phosphate) octasodium salt] | ≤ 5 µM |
| COC(=O)NCCCCCOC1C(OP(=O)(O)O)C(OCCCCCNC(=O)OC)C(OP(=O)(O)O)C(OP(=O)(O)O)C1OP(=O)(O)O (stereo not drawn) [Compound 25, 4,6-O-bis(5-((methoxycarbonyl)amino)pentyl)-myo-inositol-1,2,3,5-tetrakis(phosphate) octasodium salt] | ≤ 5 µM |
| 4,6-O-bis(3-methoxypropyl)-myo-inositol-1,2,3,5-tetrakis(phosphate) octasodium salt [Compound 10] | ≤ 5 µM |
| O=C(O)CCCOC1C(OP(=O)(O)O)C(OCCCC(=O)O)C(OP(=O)(O)O)C(OP(=O)(O)O)C1OP(=O)(O)O (stereo not drawn) [Compound 52, 4,6-O-bis(3-carboxypropyl)-myo-inositol-1,2,3,5-tetrakis(phosphate) decasodium salt] | ≤ 5 µM |
| COCCCCCOC1C(OP(O)(O)=S)C(OCCCCCOC)C(OP(O)(O)=S)C(OP(O)(O)=S)C1OP(O)(O)=S (stereo not drawn) [Compound 51, 4,6-O-bis(5-Methoxypentyl)-myo-inositol-1,2,3,5-tetrakis(thiophosphate) octasodium salt] | > 10 µM |
| 4,6-O-bis(4-methylpentyl)-myo-inositol-1,2,3,5-tetrakis(phosphate) octasodium salt [Compound 21] | > 10 µM |
| 4,6-O-diheptyl-myo-inositol-1,2,3,5-tetrakis(phosphate) octasodium salt [Compound 5] | ≤ 5 µM |
